Laboratory results published in patent US11186554B2, “Non-fused tricyclic compounds” (VIVACE THERAPEUTICS, INC., priority 2017, dated 2021).

Tested on: firefly luciferase activity
Test: Dual-Glo firefly/renilla luciferase reporter assay in cells
Format: cell-based
Conditions: 24 h, read-out: Firefly Luciferase IC50 (μM)

Compound | IC50
NC(=O)Cn1nnc(-c2ccccc2Nc2ccc(C(F)(F)F)cc2)n1 [Compound 102, 2-[5-[2-[4-(trifluoromethyl)anilino]phenyl]tetrazol-2-yl]acetamide] | < 0.1 µM
CC(O)Cn1nnc(-c2ccccc2Nc2ccc(C(F)(F)F)cc2)n1 (stereo not shown) [Compound 105, 1-[5-[2-[4-(trifluoromethyl)anilino]phenyl]tetrazol-2-yl]propan-2-ol] | < 0.1 µM
O=C(Cn1nnc(-c2ccccc2Nc2ccc(C(F)(F)F)cc2)n1)NO [Compound 113, 2-[5-[2-[4-(trifluoromethyl)anilino]phenyl]tetrazol-2-yl]ethanehydroxamic acid] | 0.1 to 1 µM
O=C(Cn1nnc(-c2ccccc2Nc2ccc(C(F)(F)F)cc2)n1)C1CC1 [Compound 121, 1-cyclopropyl-2-[5-[2-[4-(trifluoromethyl)anilino]phenyl]tetrazol-2-yl]ethanone] | 0.1 to 1 µM

Same assay, conditions: 24 hrs compound treatment, starting from 3 uM, 1:3 dilution, 10 points; read-out: Firefly Luciferase IC50

Compound | IC50
NS(=O)(=O)NCCn1nnc(-c2ccccc2Nc2ccc(C(F)(F)F)cc2)n1 [Compound 99, 2-[2-(sulfamoylamino)ethyl]-5-[2-[4-(trifluoromethyl)anilino]phenyl]tetrazole] | 1 to 5 µM
NS(=O)(=O)Cn1nnc(-c2ccccc2Nc2ccc(C(F)(F)F)cc2)n1 [Compound 101, (5-(2-((4-(trifluoromethyl)phenyl)amino)phenyl)-2H-tetrazol-2-yl)methane sulfonamide] | 0.1 to 1 µM
CC(C)(O)Cn1nnc(-c2ccccc2Nc2ccc(C(F)(F)F)cc2)n1 [Compound 106] | < 0.1 µM
NC(=O)NCCn1nnc(-c2ccccc2Nc2ccc(C(F)(F)F)cc2)n1 [Compound 108, 2-[5-[2-[4-(trifluoromethyl)anilino]phenyl]tetrazol-2-yl]ethylurea] | < 0.1 µM
CS(=O)(=O)NCCCn1nnc(-c2ccccc2Nc2ccc(C(F)(F)F)cc2)n1 [Compound 109, N-(3-(5-(2-((4-(trifluoromethyl)phenyl)amino)phenyl)-2H-tetrazol-2-yl)propyl)methanesulfonamide] | 1 to 5 µM
CC(=O)NCCCn1nnc(-c2ccccc2Nc2ccc(C(F)(F)F)cc2)n1 [Compound 111, N-[3-[5-[2-[4-(trifluoromethyl)anilino]phenyl]tetrazol-2-yl]propyl]acetamide] | 0.1 to 1 µM
OCC(O)Cn1nnc(-c2ccccc2Nc2ccc(C(F)(F)F)cc2)n1 (stereo not shown) [Compound 114, 3-(5-(2-((4-(trifluoromethyl)phenyl)amino)phenyl)-2H-tetrazol-2-yl)propane-1,2-diol] | < 0.1 µM
CCOC(=O)C(C)n1nnc(-c2ccccc2Nc2ccc(C(F)(F)F)cc2)n1 (stereo not shown) [Compound 116, ethyl 2-[5-[2-[4-(trifluoromethyl)anilino]phenyl]tetrazol-2-yl]propanoate] | < 0.1 µM
FCCn1nnc(-c2ccccc2Nc2ccc(C(F)(F)F)cc2)n1 [Compound 117, 2-[2-(2-fluoroethyl)tetrazol-5-yl]-N-[4-(trifluoromethyl)phenyl]aniline] | 0.1 to 1 µM
FC(F)(F)c1ccc(Nc2ccccc2-c2nnn(C3CCOC3)n2)cc1 (stereo not shown) [Compound 119, 2-(2-(tetrahydrofuran-3-yl)-2H-tetrazol-5-yl)-N-(4-(trifluoromethyl)phenyl) Aniline] | < 0.1 µM
FC(F)(F)c1ccc(Nc2ccccc2-c2nnn(C3CCCOC3)n2)cc1 (stereo not shown) [Compound 120, 2-(2-tetrahydropyran-3-yltetrazol-5-yl)-N-[4-(trifluoromethyl)phenyl]aniline] | 0.1 to 1 µM
FC(F)(F)c1ccc(Nc2ccccc2-c2nnn(C3CCOCC3)n2)cc1 [Compound 122, 2-(2-tetrahydropyran-4-yltetrazol-5-yl)-N-[4-(trifluoromethyl)phenyl]aniline] | 0.1 to 1 µM
FC(F)(F)c1ccc(Nc2ccccc2-c2nnn(C3COC3)n2)cc1 [Compound 123, 2-[2-(oxetan-3-yl)tetrazol-5-yl]-N-[4-(trifluoromethyl)phenyl]aniline] | < 0.1 µM
NC(=O)OCCn1nnc(-c2ccccc2Nc2ccc(C(F)(F)F)cc2)n1 [Compound 124, 2-[5-[2-[4-(trifluoromethyl)anilino]phenyl]tetrazol-2-yl]ethyl carbamate] | < 0.1 µM
CC(CO)n1nnc(-c2ccccc2Nc2ccc(C(F)(F)F)cc2)n1 (stereo not shown) [Compound 125, 2-[5-[2-[4-(trifluoromethyl)anilino]phenyl]tetrazol-2-yl]propan-1-ol] | < 0.1 µM
FCCCn1nnc(-c2ccccc2Nc2ccc(C(F)(F)F)cc2)n1 [Compound 126, 2-[2-(3-fluoropropyl)tetrazol-5-yl]-N-[4-(trifluoromethyl)phenyl]aniline] | 0.1 to 1 µM
OC(Cn1nnc(-c2ccccc2Nc2ccc(C(F)(F)F)cc2)n1)C1CC1 (stereo not shown) [Compound 127, 1-cyclopropyl-2-[5-[2-[4-(trifluoromethyl)anilino]phenyl]tetrazol-2-yl]ethanol] | < 0.1 µM
CC(C)C(=O)Cn1nnc(-c2ccccc2Nc2ccc(C(F)(F)F)cc2)n1 [Compound 128, 3-methyl-1-[5-[2-[4-(trifluoromethyl)anilino]phenyl]tetrazol-2-yl]butan-2-one] | 0.1 to 1 µM
COCC(C)n1nnc(-c2ccccc2Nc2ccc(C(F)(F)F)cc2)n1 (stereo not shown) [Compound 129, 2-(2-(1-methoxypropan-2-yl)-2H-tetrazol-5-yl)-N-(4-(trifluoromethyl)phenyl) Aniline] | < 0.1 µM
O=C(Cn1nnc(-c2ccccc2Nc2ccc(C(F)(F)F)cc2)n1)c1ccccc1 [Compound 130, 1-phenyl-2-[5-[2-[4-(trifluoromethyl)anilino]phenyl]tetrazol-2-yl]ethanone] | 1 to 5 µM

Compound | IC50
OC(Cn1nnc(-c2ccccc2Nc2ccc(C(F)(F)F)cc2)n1)C(F)(F)F (stereo not shown) [Compound 131, 1,1,1-trifluoro-3-[5-[2-[4-(trifluoromethyl)anilino]phenyl]tetrazol-2-yl]propan-2-ol] | < 0.1 µM
C[C@H](c1ccccc1)N1C(=O)OC[C@H]1Cn1nnc(-c2ccccc2Nc2ccc(C(F)(F)F)cc2)n1 [Compound 132, (4R)-3-[(1R)-1-phenylethyl]-4-[[5-[2-[4-(trifluoromethyl)anilino]phenyl]tetrazol-2-yl]methyl]oxazolidin-2-one] | 0.1 to 1 µM
OC1(Cn2nnc(-c3ccccc3Nc3ccc(C(F)(F)F)cc3)n2)CCCCC1 [Compound 133, 1-[[5-[2-[4-(trifluoromethyl)anilino]phenyl]tetrazol-2-yl]methyl]cyclohexanol] | 0.1 to 1 µM
OC1(Cn2nnc(-c3ccccc3Nc3ccc(C(F)(F)F)cc3)n2)CCNCC1 [Compound 135, 4-[[5-[2-[4-(trifluoromethyl)anilino]phenyl]tetrazol-2-yl]methyl]piperidin-4-ol] | 1 to 5 µM
O=C1NCC(Cn2nnc(-c3ccccc3Nc3ccc(C(F)(F)F)cc3)n2)O1 (stereo not shown) [Compound 136, 5-((5-(2-((4-(trifluoromethyl)phenyl)amino)phenyl)-2H-tetrazol-2-yl)methyl)oxazolidin-2-one] | 0.1 to 1 µM
OC1(Cn2nnc(-c3ccccc3Nc3ccc(C(F)(F)F)cc3)n2)CCOCC1 [Compound 138, 4-[[5-[2-[4-(trifluoromethyl)anilino]phenyl]tetrazol-2-yl]methyl]tetrahydropyran-4-ol] | 0.1 to 1 µM
CCC(O)Cn1nnc(-c2ccccc2Nc2ccc(C(F)(F)F)cc2)n1 (stereo not shown) [Compound 139, 1-(5-(2-((4-(trifluoromethyl)phenyl)amino)phenyl)-2H-tetrazol-2-yl)butan-2-ol] | < 0.1 µM
FC(F)(F)c1ccc(Nc2ccccc2-c2nnn(-c3ccccn3)n2)cc1 [Compound 140, 2-[2-(2-pyridyl)tetrazol-5-yl]-N-[4-(trifluoromethyl)phenyl]aniline] | 0.1 to 1 µM
CC(C)C(O)Cn1nnc(-c2ccccc2Nc2ccc(C(F)(F)F)cc2)n1 (stereo not shown) [Compound 141, 3-methyl-1-[5-[2-[4-(trifluoromethyl)anilino]phenyl]tetrazol-2-yl]butan-2-ol] | 0.1 to 1 µM
OC1(Cn2nnc(-c3ccccc3Nc3ccc(C(F)(F)F)cc3)n2)CCCOC1 (stereo not shown) [Compound 142, 3-[[5-[2-[4-(trifluoromethyl)anilino]phenyl]tetrazol-2-yl]methyl]tetra hydropyran-3-ol] | 0.1 to 1 µM
OC(Cn1nnc(-c2ccccc2Nc2ccc(C(F)(F)F)cc2)n1)c1ccccc1 (stereo not shown) [Compound 143, 1-phenyl-2-[5-[2-[4-(trifluoromethyl)anilino]phenyl]tetrazol-2-yl]ethanol] | 1 to 5 µM
CC(C)(C)OC(=O)N1CCCC(O)(Cn2nnc(-c3ccccc3Nc3ccc(C(F)(F)F)cc3)n2)C1 (stereo not shown) [Compound 147] | 1 to 5 µM
OC1(Cn2nnc(-c3ccccc3Nc3ccc(C(F)(F)F)cc3)n2)CCOC1 (stereo not shown) [Compound 151, 3-[[5-[2-[4-(trifluoromethyl)anilino]phenyl]tetrazol-2-yl]methyl]tetrahydro furan-3-ol] | < 0.1 µM
OC1(Cn2nnc(-c3ccccc3Nc3ccc(C(F)(F)F)cc3)n2)CCCC1 [Compound 152, 1-((5-(2-((4-(Trifluoromethyl)phenyl)amino)phenyl)-2H-tetrazol-2-yl)methyl)cyclopentanol] | < 0.1 µM
OC1(Cn2nnc(-c3ccccc3Nc3ccc(C(F)(F)F)cc3)n2)CCNC1 (stereo not shown) [Compound 153, 3-((5-(2-((4-(trifluoromethyl)phenyl)amino)phenyl)-2H-tetrazol-2-yl)methyl)pyrrolidin-3-ol] | 0.1 to 1 µM
CC(=O)N1CCC(O)(Cn2nnc(-c3ccccc3Nc3ccc(C(F)(F)F)cc3)n2)C1 (stereo not shown) [Compound 154, 1-(3-hydroxy-3-((5-(2-((4-(trifluoromethyl)phenyl)amino)phenyl)-2H-tetrazol-2-yl)methyl)pyrrolidin-1-yl)ethanone] | 0.1 to 1 µM
CC(=O)N1CCCC(O)(Cn2nnc(-c3ccccc3Nc3ccc(C(F)(F)F)cc3)n2)C1 (stereo not shown) [Compound 155, 1-(3-hydroxy-3-((5-(2-((4-(trifluoromethyl)phenyl)amino)phenyl)-2H-tetrazol-2-yl)methyl)piperidin-1-yl) Ethanone] | 0.1 to 1 µM
OC1(Cn2nnc(-c3ccccc3Nc3ccc(C(F)(F)F)cc3)n2)CCCNC1 (stereo not shown) [Compound 156, 3-((5-(2-((4-(trifluoromethyl)phenyl)amino)phenyl)-2H-tetrazol-2-yl)methyl) piperidin-3-ol] | 0.1 to 1 µM
OC1(Cn2nnc(-c3ccccc3Nc3ccc(C(F)(F)F)cc3)n2)CNC1 [Compound 157, 3-[[5-[2-[4-(trifluoromethyl)anilino]phenyl]tetrazol-2-yl]methyl]azetidin-3-ol] | 0.1 to 1 µM
